How the values were obtained:
[1] = system: Tetranychus urticae; assay: Acaricidal activity against Tetranychus urticae (two-spotted spider mite) reared on kidney bean leaves followed by compound exposure through leaf dipping assessed as mite mortality at 10 ppm measured after 3 days; type: functional; details: foliar, 72 h
[2] = system: Tetranychus urticae; assay: Acaricidal activity against Tetranychus urticae (two-spotted spider mite) reared on kidney bean leaves followed by compound exposure through leaf dipping assessed as mite mortality at 300 ppm measured after 3 days; type: functional; details: foliar, 72 h
[3] = Toxicity against Oryzias latipes (Japanese medaka) assessed as fish mortality at 0.05 ppm measured after 3 days; type: organism-based; details: in vivo
[4] = system: Tetranychus urticae; assay: Acaricidal activity against Tetranychus urticae (two-spotted spider mite) reared on kidney bean leaves followed by compound exposure through leaf dipping assessed as mite mortality at 3 ppm measured after 3 days; type: functional; details: foliar, 72 h
[5] = system: Tetranychus urticae; assay: Acaricidal activity against Tetranychus urticae (two-spotted spider mite) reared on kidney bean leaves followed by compound exposure through leaf dipping assessed as mite mortality at 30 ppm measured after 3 days; type: functional; details: foliar, 72 h
[6] = Toxicity against Oryzias latipes (Japanese medaka) assessed as fish mortality at 0.5 ppm measured after 3 days; type: organism-based; details: in vivo

Compound `CCCCCC(=O)N(CCOc1ccc(CCOCC)cc1C)C(=O)c1c(Cl)c(C)nn1C` has a mortality at 10 ppm [1] of 80%, a mortality at 300 ppm [2] of 100% and a mortality at 72 h, 0.05 ppm [3] of 1%. It also gave a mortality at 3 ppm [4] of 30%, a mortality at 30 ppm [5] of 100% and a mortality at 72 h, 0.5 ppm [6] of 100%.
`CCCCCCCCCCC(=O)N(CCOc1ccc(CCOCC)cc1C)C(=O)c1c(Cl)c(C)nn1C` gave a mortality at 10 ppm [1] of 0%, a mortality at 300 ppm [2] of 100% and a mortality at 72 h, 0.05 ppm [3] of 0%. The mortality at 3 ppm [4] was 0%, the mortality at 30 ppm [5] was 100% and the mortality at 72 h, 0.5 ppm [6] was 51%.
`CCOCCc1ccc(OCCN(C(C)=O)C(=O)c2cc(C(C)C)nn2C)c(C)c1` gave a mortality at 10 ppm [1] of 30%, a mortality at 300 ppm [2] of 100% and a mortality at 72 h, 0.05 ppm [3] of 0%. The mortality at 3 ppm [4] was 0%, the mortality at 30 ppm [5] was 100% and the mortality at 72 h, 0.5 ppm [6] was 100%.
`CCOCCc1ccc(OCCN(C(=O)c2cc(C(C)(C)C)nn2C)C(=O)C(C)C)c(C)c1` gave a mortality at 10 ppm [1] of 100%, a mortality at 300 ppm [2] of 100% and a mortality at 72 h, 0.05 ppm [3] of 0%. For the same compound, the mortality at 3 ppm [4] was 0%, the mortality at 30 ppm [5] was 100% and the mortality at 72 h, 0.5 ppm [6] was 0%.
Work on `CCCc1cc(C(=O)NCCOc2ccc(CCOCC)cc2C)n(C)n1` yielded a mortality at 10 ppm [1] of 0%, a mortality at 300 ppm [2] of 0% and a mortality at 72 h, 0.05 ppm [3] of 1%. For the same compound, the mortality at 3 ppm [4] was 0%, the mortality at 30 ppm [5] was 0% and the mortality at 72 h, 0.5 ppm [6] was 100%.
In the case of `CCCc1nn(C)c(C(=O)N(CCOc2ccc(CCOCC)cc2C)C(C)=O)c1Cl`, the mortality at 300 ppm [2] is reported as 0%, the mortality at 72 h, 0.05 ppm [3] is reported as 0% and the mortality at 30 ppm [5] is reported as 0%. For the same compound, the mortality at 72 h, 0.5 ppm [6] was 100%.
In the case of `CCCc1cc(C(=O)N(CCOc2ccc(CCOCC)cc2C)C(C)=O)n(C)n1`, the mortality at 10 ppm [1] is reported as 0%, the mortality at 300 ppm [2] is reported as 100% and the mortality at 72 h, 0.05 ppm [3] is reported as 0%. The mortality at 3 ppm [4] was 0%, the mortality at 30 ppm [5] was 30% and the mortality at 72 h, 0.5 ppm [6] was 51%.
`CCOCCc1ccc(OCCNC(=O)c2c(Cl)c(CC)nn2C)c(C)c1` gave a mortality at 10 ppm [1] of 100%, a mortality at 300 ppm [2] of 100% and a mortality at 72 h, 0.05 ppm [3] of 100%. It also gave a mortality at 3 ppm [4] of 0%, a mortality at 30 ppm [5] of 100% and a mortality at 72 h, 0.5 ppm [6] of 100%.
With `CCOCCc1ccc(OCCNC(=O)c2cc(C(C)(C)C)nn2C)c(C)c1` the mortality at 10 ppm [1] was 0%, the mortality at 300 ppm [2] was 100% and the mortality at 72 h, 0.05 ppm [3] was 1%. For the same compound, the mortality at 3 ppm [4] was 0%, the mortality at 30 ppm [5] was 30% and the mortality at 72 h, 0.5 ppm [6] was 100%.
`CCOCCc1ccc(OCCNC(=O)c2c(Cl)c(C)nn2C)c(C)c1` gave a mortality at 10 ppm [1] of 100%, a mortality at 300 ppm [2] of 100% and a mortality at 72 h, 0.05 ppm [3] of 100%. It also gave a mortality at 3 ppm [4] of 0%, a mortality at 30 ppm [5] of 100% and a mortality at 72 h, 0.5 ppm [6] of 100%.
`CCOCCc1ccc(OCCN(C(=O)c2ccccc2)C(=O)c2cc(C(C)(C)C)nn2C)c(C)c1` showed a mortality at 10 ppm [1] of 0%, a mortality at 300 ppm [2] of 100% and a mortality at 72 h, 0.05 ppm [3] of 0%. For the same compound, the mortality at 3 ppm [4] was 0%, the mortality at 30 ppm [5] was 100% and the mortality at 72 h, 0.5 ppm [6] was 0%.
`CCOCCc1ccc(OCCNC(=O)c2cc(C)nn2C)c(C)c1` gave a mortality at 10 ppm [1] of 0%, a mortality at 300 ppm [2] of 30% and a mortality at 72 h, 0.05 ppm [3] of 0%. For the same compound, the mortality at 3 ppm [4] was 0%, the mortality at 30 ppm [5] was 0% and the mortality at 72 h, 0.5 ppm [6] was 0%.
With `CCOCCc1ccc(OCCN(C(=O)CC)C(=O)c2cc(C(C)(C)C)nn2C)c(C)c1` the mortality at 10 ppm [1] was 0%, the mortality at 300 ppm [2] was 100% and the mortality at 72 h, 0.05 ppm [3] was 0%. The mortality at 3 ppm [4] was 0%, the mortality at 30 ppm [5] was 100% and the mortality at 72 h, 0.5 ppm [6] was 1%.
For `CCOCCc1ccc(OCCN(C(C)=O)C(=O)c2cc(C)nn2C)c(C)c1`, the mortality at 10 ppm [1] was 0%, the mortality at 300 ppm [2] was 100% and the mortality at 72 h, 0.05 ppm [3] was 0%. For the same compound, the mortality at 3 ppm [4] was 0%, the mortality at 30 ppm [5] was 100% and the mortality at 72 h, 0.5 ppm [6] was 1%.
`CCOCCc1ccc(OCCN(C(C)=O)C(=O)c2cc(CC)nn2C)c(C)c1` showed a mortality at 10 ppm [1] of 0%, a mortality at 300 ppm [2] of 100% and a mortality at 72 h, 0.05 ppm [3] of 0%. For the same compound, the mortality at 3 ppm [4] was 0%, the mortality at 30 ppm [5] was 100% and the mortality at 72 h, 0.5 ppm [6] was 100%.
For `CCOCCc1ccc(OCCN(C(=O)CC)C(=O)c2c(Cl)c(C)nn2C)c(C)c1`, the mortality at 10 ppm [1] was 100%, the mortality at 300 ppm [2] was 100% and the mortality at 72 h, 0.05 ppm [3] was 0%. The mortality at 3 ppm [4] was 0%, the mortality at 30 ppm [5] was 100% and the mortality at 72 h, 0.5 ppm [6] was 100%.
Work on `CCOCCc1ccc(OCCN(C(=O)c2cc(C(C)(C)C)nn2C)C(=O)C2CC2)c(C)c1` yielded a mortality at 10 ppm [1] of 30%, a mortality at 300 ppm [2] of 100% and a mortality at 72 h, 0.05 ppm [3] of 0%. The mortality at 3 ppm [4] was 0%, the mortality at 30 ppm [5] was 100% and the mortality at 72 h, 0.5 ppm [6] was 0%.
Work on `CCOCCc1ccc(OCCN(C(C)=O)C(=O)c2cc(C3CC3)nn2C)c(C)c1` yielded a mortality at 300 ppm [2] of 100%, a mortality at 72 h, 0.05 ppm [3] of 0% and a mortality at 30 ppm [5] of 0%. The mortality at 72 h, 0.5 ppm [6] was 51%.
`CCOCCc1ccc(OCCNC(=O)c2cc(CC)nn2C)c(C)c1` gave a mortality at 10 ppm [1] of 0%, a mortality at 300 ppm [2] of 100% and a mortality at 72 h, 0.05 ppm [3] of 51%. It also gave a mortality at 3 ppm [4] of 0%, a mortality at 30 ppm [5] of 30% and a mortality at 72 h, 0.5 ppm [6] of 100%.
`CCOCCc1ccc(OCCNC(=O)c2c(Cl)c(C(C)(C)C)nn2C)c(C)c1` showed a mortality at 10 ppm [1] of 30%, a mortality at 300 ppm [2] of 30% and a mortality at 72 h, 0.05 ppm [3] of 0%. For the same compound, the mortality at 3 ppm [4] was 0%, the mortality at 30 ppm [5] was 30% and the mortality at 72 h, 0.5 ppm [6] was 0%.
`CCCC(=O)N(CCOc1ccc(CCOCC)cc1C)C(=O)c1c(Cl)c(C)cn1C` gave a mortality at 10 ppm [1] of 30%, a mortality at 300 ppm [2] of 100% and a mortality at 72 h, 0.05 ppm [3] of 0%. It also gave a mortality at 3 ppm [4] of 0%, a mortality at 30 ppm [5] of 100% and a mortality at 72 h, 0.5 ppm [6] of 100%.
With `CCOCCc1ccc(OCCN(C(C)=O)C(=O)c2c(Cl)c(C(C)(C)C)nn2C)c(C)c1` the mortality at 300 ppm [2] was 80%, the mortality at 72 h, 0.05 ppm [3] was 0% and the mortality at 30 ppm [5] was 0%. For the same compound, the mortality at 72 h, 0.5 ppm [6] was 0%.
Work on `CCOCCc1ccc(OCCN(C(C)=O)C(=O)c2c(Cl)c(CC)nn2C)c(C)c1` yielded a mortality at 10 ppm [1] of 30%, a mortality at 300 ppm [2] of 100% and a mortality at 72 h, 0.05 ppm [3] of 51%. For the same compound, the mortality at 3 ppm [4] was 0%, the mortality at 30 ppm [5] was 100% and the mortality at 72 h, 0.5 ppm [6] was 100%.
`CCOCCc1ccc(OCCN(C(C)=O)C(=O)c2c(Cl)cnn2C)c(C)c1` gave a mortality at 300 ppm [2] of 0%, a mortality at 72 h, 0.05 ppm [3] of 0% and a mortality at 30 ppm [5] of 0%. The mortality at 72 h, 0.5 ppm [6] was 0%.
Compound `CCOCCc1ccc(OCCN(C(C)=O)C(=O)c2c(Cl)c(C)nn2C)c(C)c1` has a mortality at 10 ppm [1] of 80%, a mortality at 300 ppm [2] of 100% and a mortality at 72 h, 0.05 ppm [3] of 1%. For the same compound, the mortality at 3 ppm [4] was 30%, the mortality at 30 ppm [5] was 100% and the mortality at 72 h, 0.5 ppm [6] was 100%.
`CCOCCc1ccc(OCCN(C(C)=O)C(=O)c2cc(C(C)(C)C)nn2C)c(C)c1` showed a mortality at 10 ppm [1] of 80%, a mortality at 300 ppm [2] of 100% and a mortality at 72 h, 0.05 ppm [3] of 0%. The mortality at 3 ppm [4] was 0%, the mortality at 30 ppm [5] was 100% and the mortality at 72 h, 0.5 ppm [6] was 1%.

Reference: ChEMBL document CHEMBL3045966, “Synthesis and Selective Bioactivity of New Pyrazolecarboxamide Derivatives” (J Pestic Sci, 1999)
